Laboratory results reported in patent US9981004B2, “Inhibition of TREM receptor signaling with peptide variants” (SignaBlok, Inc., priority 2009, dated 2018).

Assay: Solubility of CP and CP-A peptides
Type: physicochemical
From the text: A variety of solvents and carriers can be tested to improve their solubility. Solvents and/or carriers that improve solubility of CP and CP-A include, but are not limited to, ethanol, dimethylsulphoxide (DMSO), dimethyl formamide (DMF), and trifluoracetic acid (TFA). When using DMSO as a solvent, the final concentration used in the cell function experiments may range from 0.063%-0.250%. Stock solutions of CP and CP-A can be prepared in DMSO and used at a 1:2000, 1:1000, or 1:400 dilution. In one embodiment, drug delivery systems (i.e., for example, lipid vesicles) can be used to increase solubility and bioavailability of CP and CP-A.

solubility in aqueous solutions | Substance
insoluble in aqueous solutions | H-GFLSASLVF-OH [CP-A, NH2-Gly-Phe-Leu-Ser-Ala-Ser-Leu-Val-Phe-OH]
insoluble in aqueous solutions | H-GFLSKSLVF-OH [CP, NH2-Gly-Phe-Leu-Ser-Lys-Ser-Leu-Val-Phe-OH]
